Test [1] addresses T1, motilin receptors located on the colon of mature rabbits (Oryctolagus cuniculus, UniProt G1T803).
T1 construct: The colon from mature New Zealand rabbits was removed, dissected free from the mucosa and serosa layers, and diced into small pieces; from tissue; host or cells: colon smooth muscle of mature New Zealand rabbits, crude membrane homogenate
Put plainly: competition with radiolabeled (125I) porcine motilin for the motilin receptors of rabbit colon. Type of test: binding. As to conditions: for IC50: rabbit colon, 125I motilin. As for the experimental part:
The compounds of the invention were tested for their ability to compete with radiolabeled motilin (porcine) for the motilin receptors located on the colon of mature rabbits. The colon from mature New Zealand rabbits was removed, dissected free from the mucosa and serosa layers, and diced into small pieces. […] The homogenate was centrifuged at 1000×g for 15 min. and the supernatant discarded. The pellet was washed twice before being suspended in homogenizing buffer. This crude homogenate is then passed first through a 19 gauge needle then a 23 gauge needle to further suspend the material and stored as -80° C. […] After 30 min, at 30° C., the material was cooled on ice and centrifuged at 13,000×g for 1 minute. The pellet was washed with 1 mL 0.9% saline and centrifuged at 13,000×g for 15 seconds. The pellet was washed again with cold saline and the supernatant was removed. The pellet was counted in the gamma counter to determine the percentage of […] motilin and thereby the percent inhibition of the test compound. IC50s were determined for some compounds by standard techniques.

Test [2] deals with rabbit duodenum smooth muscle (motilin and erythromycin induced contractions). Put plainly: inhibition of motilin (porcine) induced contractions in rabbit duodenum smooth muscle. Type of test: cell-based. As to conditions: Oryctolagus cuniculus. As for the experimental part:
Select compounds of the invention were evaluated for their ability to inhibit motilin and erythromycin induced contractions in the rabbit duodenum smooth muscle. Rabbits were fasted 24-48 h and euthanized. The venral midline incision was made approximately 7.5 cm above the umbilicus upto the xyphoid process, exposing the upper peritoneal cavity. The first 8 cm. of the duodenum starting at the pyloric valve was quickly removed and placed in Krebs solution containing NaCl, ([…]), KCl (4.7 mM), MgSO4 *7 H2 O (1.2 mM), CaCl2 *2 H2 O (2.4 mM), KH2 PO4 (1 mM), D-glucose (10 mM), and NaHCO3 (24 mM). The lumen was flushed with Krebs and excess tissue was removed. The tissue was cut lengthwise, splayed open with the longitudinal muscle layer facing up, and the longitudinal muscle layer was released away from the circular muscle and cut into 3×30 mm strips. A pre-tied 4-0 silk ligature with a loop was placed at the middle of the strip and the strip was folded over the loop so the strip was half its original length. The tissues were mounted in a 10 mL tissue bath (Radnotti Glass Technology, Inc., Monrovia, Calif.) containing Krebs solution gassed with 95% O2 5% CO2 at 37° C. […] The tissues were allowed to equilibrate for 60-90 min with 2-3 wash cycles. The tissues were equilibrated with two initial contractions induced by a concentration of acetylcholine (1×10^-4 M) that produced a maximal contraction (0.1 mM), with the highest taken as 100% maximall contraction of that tissue. Base line and response levels are expressed as grams tension developed and as a percent of the response to acetylcholine. The test compounds were dissolved in DMSO (2 mM/100% DMSO) and applied to the prepared strips 5-15 minutes prior to the addition of porcine motilin. After addition, the tension is constantly monitored over 5 min and the maximum tension is recorded. The percent contraction was measured at four ascending concentrations and where appropriate IC50s were determined.

The test system of the next test is motilin receptor. As to conditions: Weber et al. 1993; cited from earlier work.
A further test relates to humans. As to conditions: intravenous, Christofides et al. 1979; cited from earlier work.
The subject of test [3] is smooth muscle in the stomach tissue of dogs, rabbits, and humans and in the colon of rabbits. As to conditions: cited from earlier work.

SMILES strings stand for the structures. Where two headings read alike, the source gives them in different places.

T1 sequence (G1T803 1-400): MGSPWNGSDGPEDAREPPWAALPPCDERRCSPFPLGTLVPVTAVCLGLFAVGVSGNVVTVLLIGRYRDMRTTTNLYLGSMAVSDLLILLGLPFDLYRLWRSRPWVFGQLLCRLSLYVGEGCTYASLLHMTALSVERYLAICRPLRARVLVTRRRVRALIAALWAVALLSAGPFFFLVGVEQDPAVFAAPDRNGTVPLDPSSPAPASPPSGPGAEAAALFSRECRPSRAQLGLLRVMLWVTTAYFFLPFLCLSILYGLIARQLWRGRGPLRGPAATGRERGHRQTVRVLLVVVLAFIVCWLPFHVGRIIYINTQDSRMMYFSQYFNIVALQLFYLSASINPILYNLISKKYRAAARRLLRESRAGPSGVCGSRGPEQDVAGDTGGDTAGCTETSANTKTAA

For `CCN(CC)CCSc1ccc(NCC2=CC(Cc3ccccc3)(NC(=O)C(Cl)(Cl)Cl)CC2)cc1` (centres unmarked) [Compound 58], in test [1] (read-out: IC50 (unit inferred)), the IC50 worked out at 1800 nM. This compound came in with an inhibition at 2 µM in test [2] (@ 2 μM (2.0 μM)) of 44%.

As for `O=C(c1ccc(F)cc1)N(CC1=CC(Cc2ccccc2)(NC(=O)C(Cl)(Cl)Cl)CC1)c1cccc(OCCN2CCOCC2)c1` (centres unmarked) [Compound 59], the IC50 in test [1] (read-out: IC50) stood at 52 nM. In test [2] (@ 3.0 μM), this compound yielded an inhibition at 3 µM of 54%.

`COc1ccc(C(=O)N(CC2=CC(Cc3ccccc3)(NC(=O)C(Cl)(Cl)Cl)CC2)c2cccc(OCCN3CCOCC3)c2)cc1` (centres unmarked) [Compound 60]: the IC50 in test [1] (read-out: IC50) came to 90 nM. In test [2] (@ 10 μM), this compound displayed an inhibition at 10 µM of 49%.

`O=C(c1ccc(Br)cc1)N(CC1=CC(Cc2ccccc2)(NC(=O)C(Cl)(Cl)Cl)CC1)c1cccc(OCCN2CCOCC2)c1` (centres unmarked) [Compound 61] registered an inhibition at 0.05 µM in test [1] (@ 0.05 μM) of 64%. Moreover, the inhibition at 1 µM in test [2] was 63%.

On to `O=C(c1ccc(F)c(F)c1)N(CC1=CC(Cc2ccccc2)(NC(=O)C(Cl)(Cl)Cl)CC1)c1cccc(OCCN2CCOCC2)c1` (centres unmarked) [Compound 62], for which the IC50 in test [1] (read-out: IC50) was determined as 50 nM. The inhibition at 1 µM in test [2] came to 65%.

Regarding `O=C(Nc1cccc(F)c1)N(CC1=CC(Cc2ccccc2)(NC(=O)C(Cl)(Cl)Cl)CC1)c1cccc(OCCN2CCOCC2)c1` (centres unmarked) [Compound 63], in test [1] (read-out: IC50), the IC50 turned out to be 37 nM. Moreover, the inhibition at 1 µM in test [2] stood at 63.8%.

On to `COc1ccc(CC2(NC(=O)C(Cl)(Cl)Cl)C=C(CN(C(=O)c3ccc(F)cc3)c3cccc(OCCN4CCOCC4)c3)CC2)cc1` (centres unmarked) [Compound 65], for which the half-inhibitory concentration (IC50) in test [1] (read-out: IC50) was 56 nM. The inhibition at 1 µM in test [2] is 72%.

In the case of `COc1ccc(CC2(NC(=O)C(Cl)(Cl)Cl)C=C(CN(C(=O)c3ccccc3)c3cccc(OCCN4CCOCC4)c3)CC2)cc1` (centres unmarked) [Compound 66], in test [1] (read-out: IC50), the 50% inhibitory concentration (IC50) was 56 nM. Also, testing at 1 µM in test [2] gave an inhibition of 58%.

Regarding `O=C(Nc1ccccc1)N(CC1=CC(Cc2ccc(F)cc2)(NC(=O)C(Cl)(Cl)Cl)CC1)c1cccc(OCCN2CCOCC2)c1` (centres unmarked) [Compound 67], at 0.25 µM the inhibition in test [1] (@ 0.25 μM) was 34%. Also, in test [2], the inhibition at 1 µM amounted to 25.7%.

As to `O=C(Nc1ccccc1)N(CC1=CC(Cc2cccc(Cl)c2)(NC(=O)C(Cl)(Cl)Cl)CC1)c1cccc(OCCN2CCOCC2)c1` (centres unmarked) [Compound 68], in test [1] (@ 0.1 μM), the inhibition at 0.1 µM came out at 70%. This compound came in with an inhibition at 1 µM in test [2] of 51%.

As to `CC[C@H]1OC(=O)[C@H](C)[C@@H](O[C@H]2C[C@@](C)(OC)[C@@H](O)[C@H](C)O2)[C@H](C)[C@@H](O[C@@H]2O[C@H](C)C[C@H](N(C)C)[C@H]2O)[C@](C)(O)C[C@@H](C)C(=O)[C@H](C)[C@@H](O)[C@]1(C)O` [erythromycin], in the test on motilin receptor, the “biological responses compared with motilin” value is “elicits biological responses that are comparable to motilin itself”.

As to `CC[C@H](C)[C@H](NC(=O)[C@@H]1CCCN1C(=O)[C@@H](NC(=O)[C@@H](N)Cc1ccccc1)C(C)C)C(=O)N[C@@H](Cc1ccccc1)C(=O)N[C@H](C(=O)N[C@@H](Cc1ccc(O)cc1)C(=O)NCC(=O)N[C@@H](CCC(=O)O)C(=O)N[C@@H](CC(C)C)C(=O)N[C@@H](CCC(N)=O)C(=O)N[C@@H](CCCNC(=N)N)C(=O)N[C@@H](CCSC)C(=O)N[C@@H](CCC(N)=O)C(=O)N[C@@H](CCC(=O)O)C(=O)N[C@@H](CCCCN)C(=O)N[C@@H](CCC(=O)O)C(=O)N[C@@H](CCCNC(=N)N)C(=O)N[C@@H](CC(N)=O)C(=O)N[C@@H](CCCCN)C(=O)NCC(=O)N[C@@H](CCC(N)=O)C(=O)O)[C@@H](C)O` [motilin], in the test on humans, the “gastric emptying and gut hormone release” value is “increase gastric emptying and gut hormone release”. Also, the smooth muscle contractions result in test [3] was “induces smooth muscle contractions”.

In general, IC50 refers to the concentration that inhibits the measured activity by half. The term inhibition denotes how much of the control response was suppressed.

Source of the values: US5972939A, “Cyclopentene derivatives useful as antagonists of the motilin receptor” (Ortho-McNeil Pharmaceutical, Inc., priority 1998, dated 1999).
